Experiments:
[1] = rat pharmacokinetic studies, oral administration; type: in vivo; conditions: rats
[2] = pharmacokinetics in Beagle dogs, oral administration of the compound; type: in vivo
[3] = solubility, pH dependence; type: physicochemical; conditions: mesylate; increasing pH

bioavailability ([1]; rat, blood, oral): 96.3%
half-life ([1]; rat, blood, oral administration, read-out: elimination half-life (converted)): ~1.8 h
peak blood concentration (time) ([1]; oral administration): 0.5 h
half-life ([2]; dog, blood, Beagle dogs, read-out: elimination half-life (converted)): ~3.5 h
time to peak blood concentration (Tmax) ([2]; dogs): 0.5 h
SMILES: COC(=O)c1cc(OC)c2c(c1-c1c(CN3CCOCC3)cc(OC)c3c1OCO3)OCO2 [IMM-H014, methyl 7,7′-dimethoxy-5′-(morpholinomethyl)-[4,4′-bibenzo[d][1,3]dioxole]-5-carboxylate]
solubility (pH-dependent) [3]: as the pH increases, the solubility gradually decreases
